Converted amounts (≈) assume the structure as drawn. Where two headings read alike, the source gives them in different places.
Key:
Leishmania major = assay: Treatment of mice infected with Leishmania major; assay type: in vivo, Leishmania major (balb/c mice)
Pseudomonas = assay: microbe, parasite or virus in culture; assay type: cell-based, Pseudomonas spp.
C. albicans = assay: MIC by agar diffusion method; assay type: cell-based; settings: Candida albicans, N = 5
N. gonorrhoea = assay: MIC by agar diffusion method; assay type: cell-based, Neisseria gonorrhoea; settings: Neisseria
S. aureus [1] = assay: microbe, parasite or virus in culture; assay type: cell-based; settings: Staphylococcus aureus, read-out: lowest concentration inhibiting at least one isolate
Candida [2] = assay: microbe, parasite or virus in culture; assay type: cell-based, Candida spp.
Leishmania donova = test system: Leishmania donova; design: species or system Leishmania donova (Balb/c mice); settings: mouse, in vivo
Penicillium = assay: MIC by agar diffusion method; assay type: cell-based, Penicillium spp.; settings: N = 1
EPEC/ETEC [3] = assay: MIC in broth; assay type: cell-based, Enteropathogenic/enterotoxigenic Escherichia coli; settings: Escherichia coli, N = 5
Archromobacter = assay: MIC by agar diffusion method; assay type: cell-based; settings: Achromobacter, N = 1
EPEC/ETEC [4] = assay: MIC in agar dilution; assay type: cell-based, Enteropathogenic/enterotoxigenic Escherichia coli; settings: Escherichia coli, N = 5
lymphocytes = assay: Immunomodulatory activity, bone marrow examination; assay type: in vivo; settings: Balb/c mice
Ph. verrucose = assay: microbe, parasite or virus in culture; assay type: cell-based, Phialophora verrucose; settings: Phialophora
S. epidermidis = assay: MIC by agar diffusion method; assay type: cell-based; settings: Staphylococcus epidermidis
Candida [5] = assay: MIC in agar dilution; assay type: cell-based, Candida spp.; settings: N = 2
Salmonella = assay: microbe, parasite or virus in culture; assay type: cell-based, Salmonella spp.
E. coli = assay: microbe, parasite or virus in culture; assay type: cell-based; settings: Escherichia coli
Cryptococcus = assay: MIC by agar diffusion method; assay type: cell-based, Cryptoccus spp.; settings: N = 1
Candida [6] = assay: MIC in broth; assay type: cell-based, Candida spp.; settings: N = 2
Shigella = assay: microbe, parasite or virus in culture; assay type: cell-based, Shigella spp.
[7] = test system: Myeloma cell line (x63 balb/c line); assay: Effect on myeloma cell line; assay type: cell-based
Klebisella = assay: microbe, parasite or virus in culture; assay type: cell-based, Klebsiella spp.; settings: Klebsiella
Tri. violaceum = assay: microbe, parasite or virus in culture; assay type: cell-based, Trichophyton violaceurn; settings: Trichophyton violaceum
[8] = mouse, in vivo, ip
human spermatozoa = assay: Effect on spermatozoa; assay type: cell-based
Tri. canis = assay: microbe, parasite or virus in culture; assay type: cell-based, Trichophyton canis; settings: Trichophyton
S. aureus [9] = assay: microbe, parasite or virus in culture; assay type: cell-based; settings: Staphylococcus aureus
[10] = test system: microorganisms which cause common infections; assay type: cell-based
in vivo = settings: mouse
[11] = design: species or system New Zealand White rabbits; settings: rabbit, in vivo
[12] = design: species or system New Zealand White rabbits; settings: rabbit, in vivo; remark: listed apart in the source

## O.O.O.O.O.O.O.O.O.O=C([O-])[C@@H]1[O][Sb](=[O])([O][Sb]2(=[O])[O][C@H]([C@H](O)CO)[C@H](O)[C@H](C(=O)[O-])[O]2)[O][C@H]([C@H](O)CO)[C@@H]1O.[Na+].[Na+].[Na+] (some centres unmarked) [Pentostam, reference compound]
Leishmania major; mouse, in vivo, ip
  lesions, Day 14: Large lesions
  number dead, Day 14: 1
  palate involvement, Day 14: involvement

## CCC1OOC(CCO)O1 (stereo not drawn) [trioxolane derivative of cis 3-hexene-1-ol]
Pseudomonas
  MBC: 1250 mg/L (≈ 8440 µM)
C. albicans
  MIC: 31 mg/L (≈ 209 µM)
N. gonorrhoea; N = 49, number in parentheses, read-out: lowest concentration inhibiting at least one isolate
  MIC: 1.9 mg/L (≈ 12.8 µM)
N. gonorrhoea; N = 49, read-out: MIC
  MIC: 3.5 mg/L (≈ 23.6 µM)
Leishmania major; IP, n = 15/group
  lesions, Day 0: Large lesions
  lesions, Day 14: Lesions scabbed
  number dead, Day 14: 2
  number with palate involvement, Day 14: 2
Leishmania major; topical, n = 15/group
  general condition, Day 14: Animals healthy and
  lesions, Day 0: Large lesions
S. aureus [1]
  MIC: 31 mg/L (≈ 209 µM)
Candida [2]
  MBC: 1250 mg/L (≈ 8440 µM)
Leishmania donova
  clearing parasites from the viscera compared with Pentostam: perform better than Pentostam
Penicillium
  MIC: 310 mg/L (≈ 2090 µM)
EPEC/ETEC [3]
  MIC: 620 mg/L (≈ 4180 µM)
Archromobacter
  MIC: 60 mg/L (≈ 405 µM)
EPEC/ETEC [4]
  MIC: 31 mg/L (≈ 209 µM)
lymphocytes
  new clones of lymphocytes in bone marrow vs mice without any drug: increase in new clones of lymphocytes
Ph. verrucose
  MIC: 150 mg/L (≈ 1010 µM)
S. epidermidis; read-out: lowest concentration inhibiting at least one isolate
  MIC: 31 mg/L (≈ 209 µM)
S. epidermidis; agar diffusion, N = 14, read-out: MIC
  MIC: 25 mg/L (≈ 169 µM)
Candida [5]
  MIC: 31 mg/L (≈ 209 µM)
Salmonella
  MBC: 2500 mg/L (≈ 16900 µM)
E. coli
  MIC: 120 mg/L (≈ 810 µM)
Cryptococcus
  MIC: 15 mg/L (≈ 101 µM)
Candida [6]
  MIC: 310 mg/L (≈ 2090 µM)
Shigella
  MBC: 1250 mg/L (≈ 8440 µM)
[7]
  time within which myeloma cell line was killed: ≤ 48 h
Klebisella
  MIC: 7 mg/L (≈ 47.2 µM)
Tri. violaceum
  MIC: 150 mg/L (≈ 1010 µM)
[8]
  minimum lethal dose: 3000 mg/kg
  tolerability in studies on LD50: highly tolerated
Human spermatozoa
  time within which human spermatozoa were killed: ≤ 1 min
Tri. canis
  MIC: 150 mg/L (≈ 1010 µM)
S. aureus [9]
  MBC: 1250 mg/L (≈ 8440 µM)
[10]
  activity compared with Geraniol trioxolane: more active than Geraniol trioxolane
  activity compared with conventional drugs: more active than conventional drugs
  direct bioactivity, agar vs broth: better in agar than in broth methods
  effect of water on direct bioactivity: significantly reduces
  relationship with resistance and sensitivity to conventional antibiotics: no relationship
  sensitivity of all the microorganisms tested: uniformly sensitive

## CC1(C)OOC(CCC(C)(O)C2OCOO2)O1 (centres unmarked) [linalool trioxolane]
In vivo
  LD50: ~3000 mg/kg
[11]
  Primary Irritation Index (PII): 1.0
[12]
  ocular irritation: non-irritant
